Key:
[1] = Determination of lipid-water partition coefficient (n-octanol/PBS pH 7.4); format: physicochemical; settings: n-octanol / PBS 0.025 M; for logP: n-octanol/phosphate buffer solution (PBS)
Description: A 2 mL centrifuge tube was added with 100 µL (10µCi) of a labeling solution, then added with 950 µL of n-octanol and 850 µL of phosphate buffer solution (PBS, 0.025 M, pH=7.4). The 2 mL centrifuge tube was subjected to vortex for 3 min (2,500 rpm) and standing until the reaction solution was layered, and then centrifuged at 9,000 rpm for 5 min. Three samples (each for 100 µL) were collected from each of the two phases, and placed in γ-counter for the determination of radioactive counting. The lipid-water partition coefficient (P) was calculated by Organic phase radioactive counting/ water phase radioactive counting, and was usually expressed as Log P. The log P values of the radioactive compounds provided in Examples 1-4 were shown in Table 3.

S180 tumor = assay: Biodistribution in tumor-bearing mice; format: in vivo; settings: for Blood / Bone / Heart / Kidney / Liver / Lung / Muscle / Small intestine / Spleen / Thyroid / Tumor / Tumor/blood ratio / Tumor/muscle ratio: i.v., mice bearing S180 tumor; for tumor uptake compared with 99mTc-CNPEDG / target/non-target ratio compared with 99mTc-CNPEDG / Tumor/lung ratio / tumor/muscle, tumor/blood and tumor/lung ratio compared with p-substituted 99mTc complexes: 120 min p.i.
Description: The mice bearing S180 tumors were injected intravenously via the tail vein respectively with the solutions (0.1 mL, 370 kBq) containing the radioactive drugs of Examples 1-4. The mice bearing S180 tumors were sacrificed by decapitation at different time points (30 min, 120 min) after the injection (5 mice for each time point). After dissection, the heart, liver, lung, kidney, spleen, bone, muscle, small intestine, blood and tumors were harvested, and measured for radioactivity with the γ-counter. The biodistribution individual organs or tissues was expressed as the percentage of the injected dose per gram of organ or tissue (% ID/g).

[2] = 120 min, mean ± SD, listed as 99mTc-4-CNPEDG

Structure (SMILES) | Blood (S180 tumor; 30 min, n=5, mean ± SD) [% ID/g] | Bone (S180 tumor; 30 min, n=5, mean ± SD) [% ID/g] | Heart (S180 tumor; 30 min, n=5, mean ± SD) [% ID/g] | Kidney (S180 tumor; 30 min, n=5, mean ± SD) [% ID/g] | Liver (S180 tumor; 30 min, n=5, mean ± SD) [% ID/g] | Lung (S180 tumor; 30 min, n=5, mean ± SD) [% ID/g] | Muscle (S180 tumor; 30 min, n=5, mean ± SD) [% ID/g] | Small intestine (S180 tumor; 30 min, n=5, mean ± SD) [% ID/g] | Spleen (S180 tumor; 30 min, n=5, mean ± SD) [% ID/g] | Thyroid (S180 tumor; 30 min, n=5, mean ± SD) [%ID/g] | Tumor (S180 tumor; 30 min, n=5, mean ± SD) [% ID/g] | Tumor/blood ratio (S180 tumor; 30 min, n=5, mean ± SD) | Blood (S180 tumor; 120 min, mean ± SD) [% ID/g] | Kidney (S180 tumor; 120 min, mean ± SD) [% ID/g] | Liver (S180 tumor; 120 min, mean ± SD) [% ID/g] | Lung (S180 tumor; 120 min, mean ± SD) [% ID/g] | Muscle (S180 tumor; 120 min, mean ± SD) [% ID/g] | Tumor (S180 tumor; 120 min, mean ± SD) [% ID/g] | Tumor/blood ratio (S180 tumor; 120 min, mean ± SD) | Tumor/muscle ratio (S180 tumor; 120 min, mean ± SD) | also measured
O=C(Cc1ccc(C[N+]#[C][99Tc+]([C]#[N+]Cc2ccc(CC(=O)NC3C(O)OC(CO)C(O)C3O)cc2)([C]#[N+]Cc2ccc(CC(=O)NC3C(O)OC(CO)C(O)C3O)cc2)([C]#[N+]Cc2ccc(CC(=O)NC3C(O)OC(CO)C(O)C3O)cc2)([C]#[N+]Cc2ccc(CC(=O)NC3C(O)OC(CO)C(O)C3O)cc2)[C]#[N+]Cc2ccc(CC(=O)NC3C(O)OC(CO)C(O)C3O)cc2)cc1)NC1C(O)OC(CO)C(O)C1O (centres unmarked) [^99mTc-4-CNMBDG] | 4.08 ± 0.57 | 3.05 ± 0.62 | 2.67 ± 0.41 | 10.18 ± 1.28 | 3.00 ± 0.55 | 5.89 ± 0.59 | 1.96 ± 0.50 | 4.04 ± 0.87 | 2.24 ± 0.38 | 0.07 ± 0.01 | 6.46 ± 1.86 | 1.57 ± 0.36 | 0.64 ± 0.22 | 7.37 ± 1.71 | 2.43 ± 0.49 | 1.31 ± 0.44 | 0.86 ± 0.15 | 6.22 ± 1.77 | 10.06 ± 1.54 | 7.14 ± 1.11 | logP [1]: -3.1 ± 0.036; Tumor/muscle ratio (S180 tumor; 30 min, n=5, mean ± SD): 3.52 ± 1.35; Bone (S180 tumor; 120 min, mean ± SD): 1.27 ± 0.35 % ID/g; Heart (S180 tumor; 120 min, mean ± SD): 1.31 ± 0.18 % ID/g; Small intestine (S180 tumor; 120 min, mean ± SD): 1.65 ± 0.43 % ID/g; Spleen (S180 tumor; 120 min, mean ± SD): 1.28 ± 0.34 % ID/g; Thyroid (S180 tumor; 120 min, mean ± SD): 0.03 ± 0.01 %ID/g; tumor uptake compared with 99mTc-CNPEDG (S180 tumor; in words): higher tumor uptake; clearance in blood (S180 tumor; compared with 99mTc-CNPEDG, in words): faster clearance in blood
O=C(NC1C(O)OC(CO)C(O)C1O)c1ccc(C[N+]#[C][99Tc+]([C]#[N+]Cc2ccc(C(=O)NC3C(O)OC(CO)C(O)C3O)cc2)([C]#[N+]Cc2ccc(C(=O)NC3C(O)OC(CO)C(O)C3O)cc2)([C]#[N+]Cc2ccc(C(=O)NC3C(O)OC(CO)C(O)C3O)cc2)([C]#[N+]Cc2ccc(C(=O)NC3C(O)OC(CO)C(O)C3O)cc2)[C]#[N+]Cc2ccc(C(=O)NC3C(O)OC(CO)C(O)C3O)cc2)cc1 (centres unmarked) [^99mTc-CNPEDG, reference compound] |  |  |  |  |  |  |  |  |  |  |  |  | 1.29 ± 0.16 | 7.56 ± 0.94 | 2.52 ± 0.26 | 2.39 ± 0.31 | 0.82 ± 0.08 | 4.25 ± 0.56 | 3.29 ± 0.12 | 5.21 ± 0.50 | 
O=C(NC1C(O)OC(CO)C(O)C1O)c1ccc(CC[N+]#[C][99Tc+]([C]#[N+]CCc2ccc(C(=O)NC3C(O)OC(CO)C(O)C3O)cc2)([C]#[N+]CCc2ccc(C(=O)NC3C(O)OC(CO)C(O)C3O)cc2)([C]#[N+]CCc2ccc(C(=O)NC3C(O)OC(CO)C(O)C3O)cc2)([C]#[N+]CCc2ccc(C(=O)NC3C(O)OC(CO)C(O)C3O)cc2)[C]#[N+]CCc2ccc(C(=O)NC3C(O)OC(CO)C(O)C3O)cc2)cc1 (centres unmarked) [^99mTc-4-CNPeDG] | 2.42 ± 0.16 | 1.10 ± 0.07 | 1.15 ± 0.04 | 7.32 ± 0.90 | 0.95 ± 0.03 | 2.80 ± 0.13 | 0.68 ± 0.05 | 1.38 ± 0.20 | 0.70 ± 0.02 | 0.02 ± 0.00 | 2.80 ± 0.04 | 1.16 ± 0.09 | 0.10 ± 0.04 | 2.98 ± 0.74 | 0.38 ± 0.08 | 0.23 ± 0.03 | 0.10 ± 0.02 | 0.95 ± 0.21 | 10.17 ± 1.95 | 9.69 ± 1.81 | Log P [1]: -3.593 ± 0.012; Tumor/muscle ratio (S180 tumor; 30 min, n=5, mean ± SD): 4.16 ± 0.35; Bone (S180 tumor; 120 min, mean ± SD): 0.18 ± 0.03 % ID/g; Heart (S180 tumor; 120 min, mean ± SD): 0.15 ± 0.02 % ID/g; Small intestine (S180 tumor; 120 min, mean ± SD): 0.31 ± 0.07 % ID/g; Spleen (S180 tumor; 120 min, mean ± SD): 0.17 ± 0.03 % ID/g; Thyroid (S180 tumor; 120 min, mean ± SD): 0.003 ± 0.001 %ID/g; Tumor/blood ratio (S180 tumor; [2]): 3.29 ± 0.12; Tumor/muscle ratio (S180 tumor; [2]): 5.21 ± 0.50; target/non-target ratio compared with 99mTc-CNPEDG (S180 tumor; in words): better target/non-target ratio; tumor uptake compared with 99mTc-CNPEDG (S180 tumor; in words): lower tumor uptake; Tumor/lung ratio (S180 tumor; mean ± SD): 1.81 ± 0.30
O=C(NC1C(O)OC(CO)C(O)C1O)c1cccc(C[N+]#[C][99Tc+]([C]#[N+]Cc2cccc(C(=O)NC3C(O)OC(CO)C(O)C3O)c2)([C]#[N+]Cc2cccc(C(=O)NC3C(O)OC(CO)C(O)C3O)c2)([C]#[N+]Cc2cccc(C(=O)NC3C(O)OC(CO)C(O)C3O)c2)([C]#[N+]Cc2cccc(C(=O)NC3C(O)OC(CO)C(O)C3O)c2)[C]#[N+]Cc2cccc(C(=O)NC3C(O)OC(CO)C(O)C3O)c2)c1 (centres unmarked) [^99mTc-3-CNPEDG] | 2.82 ± 0.30 | 1.26 ± 0.23 | 1.18 ± 0.12 | 9.69 ± 3.48 | 1.30 ± 0.06 | 3.10 ± 0.22 | 0.82 ± 0.24 | 2.19 ± 0.69 | 0.86 ± 0.09 | 0.04 ± 0.01 | 2.72 ± 0.36 | 0.97 ± 0.07 | 0.22 ± 0.07 | 4.70 ± 0.81 | 0.68 ± 0.07 | 0.42 ± 0.09 | 0.16 ± 0.04 | 1.35 ± 0.20 | 6.40 ± 1.45 | 8.76 ± 1.14 | logP [1]: -3.39 ± 0.166; Tumor/muscle ratio (S180 tumor; 30 min, n=5, mean ± SD): 3.49 ± 0.71; Bone (S180 tumor; 120 min, mean ± SD): 0.30 ± 0.06 % ID/g; Heart (S180 tumor; 120 min, mean ± SD): 0.23 ± 0.05 % ID/g; Small intestine (S180 tumor; 120 min, mean ± SD): 0.43 ± 0.11 % ID/g; Spleen (S180 tumor; 120 min, mean ± SD): 0.25 ± 0.06 % ID/g; Thyroid (S180 tumor; 120 min, mean ± SD): 0.01 ± 0.00 %ID/g; target/non-target ratio compared with 99mTc-CNPEDG (S180 tumor; in words): better target/non-target ratio; tumor uptake compared with 99mTc-CNPEDG (S180 tumor; in words): lower tumor uptake; tumor/muscle, tumor/blood and tumor/lung ratio compared with p-substituted 99mTc complexes (S180 tumor; in words): higher; Tumor/lung ratio (S180 tumor; mean ± SD): 3.26 ± 0.37
O=C(NC1C(O)OC(CO)C(O)C1O)c1cccc([N+]#[C][99Tc+]([C]#[N+]c2cccc(C(=O)NC3C(O)OC(CO)C(O)C3O)c2)([C]#[N+]c2cccc(C(=O)NC3C(O)OC(CO)C(O)C3O)c2)([C]#[N+]c2cccc(C(=O)NC3C(O)OC(CO)C(O)C3O)c2)([C]#[N+]c2cccc(C(=O)NC3C(O)OC(CO)C(O)C3O)c2)[C]#[N+]c2cccc(C(=O)NC3C(O)OC(CO)C(O)C3O)c2)c1 (centres unmarked) [^99mTc-3-CNBzDG] | 2.53 ± 0.83 | 1.44 ± 0.29 | 1.44 ± 0.21 | 6.69 ± 0.68 | 1.38 ± 0.24 | 4.00 ± 0.52 | 0.77 ± 0.06 | 2.05 ± 0.29 | 1.06 ± 0.27 | 0.03 ± 0.01 | 2.51 ± 0.52 | 1.04 ± 0.22 | 0.27 ± 0.02 | 4.49 ± 0.56 | 0.89 ± 0.09 | 0.76 ± 0.20 | 0.24 ± 0.05 | 1.47 ± 0.22 | 5.39 ± 0.79 | 6.16 ± 0.71 | logP [1]: -3.74 ± 0.038; Tumor/muscle ratio (S180 tumor; 30 min, n=5, mean ± SD): 3.28 ± 0.66; Bone (S180 tumor; 120 min, mean ± SD): 0.42 ± 0.03 % ID/g; Heart (S180 tumor; 120 min, mean ± SD): 0.54 ± 0.07 % ID/g; Small intestine (S180 tumor; 120 min, mean ± SD): 0.70 ± 0.10 % ID/g; Spleen (S180 tumor; 120 min, mean ± SD): 0.43 ± 0.17 % ID/g; Thyroid (S180 tumor; 120 min, mean ± SD): 0.01 ± 0.00 %ID/g; target/non-target ratio compared with 99mTc-CNPEDG (S180 tumor; in words): better target/non-target ratio; tumor uptake compared with 99mTc-CNPEDG (S180 tumor; in words): lower tumor uptake; tumor/muscle, tumor/blood and tumor/lung ratio compared with p-substituted 99mTc complexes (S180 tumor; in words): higher; Tumor/lung ratio (S180 tumor; mean ± SD): 2.01 ± 0.35
O=C(NC1C(O)OC(CO)C(O)C1O)c1ccc([N+]#[C][99Tc+]([C]#[N+]c2ccc(C(=O)NC3C(O)OC(CO)C(O)C3O)cc2)([C]#[N+]c2ccc(C(=O)NC3C(O)OC(CO)C(O)C3O)cc2)([C]#[N+]c2ccc(C(=O)NC3C(O)OC(CO)C(O)C3O)cc2)([C]#[N+]c2ccc(C(=O)NC3C(O)OC(CO)C(O)C3O)cc2)[C]#[N+]c2ccc(C(=O)NC3C(O)OC(CO)C(O)C3O)cc2)cc1 (centres unmarked) [^99mTc-4-CNBzDG] |  |  |  |  |  |  |  |  |  |  |  |  |  |  |  |  |  |  | 0.47 ± 0.02 | 2.34 ± 0.18 | Tumor/lung ratio (S180 tumor; mean ± SD): 0.49 ± 0.02

Source: patent publication US20230263914A1, “BENZENE RING-CONTAINING GLUCOSE DERIVATIVE AND USE THEREOF” (priority 2020, published 2023)
